Reference: article PMC9668969 (Nature Communications, 2022)

Key:
Type in all cases: biochemical, Erwinia chrysanthemi
Settings in all cases: 25 mol% outer leaflet POPG, 10 mM propylamine
ELIC W206F = biological target: T1, ELIC W206F (Dickeya chrysanthemi, UniProt P0C7B7, W205F)
T1 construct: host or cells: OverExpress C43 (DE3) E. coli
Experimental: (§1) The mutations were tested as for WT by examining the effect of 25 mol% outer leaflet POPG in paired (no exchange versus exchange) samples (Supplementary Fig. 15).
(§2) The fluorescence sequential-mixing stopped-flow liposomal flux measurements were carried using an SX20 stopped-flow spectrofluorometer (Applied Photophysics) and Pro-Data SX software[13],[30]. 7.5 mg of the respective lipid mixture (POPC, 1:1 POPC: POPE, 1:1 POPC:POPG, 3:1 POPC:POPE, 3:1 POPC:POPG, 2:1:1 POPC:POPE:POPG) was dried in a glass vial to a thin film under a constant stream of N2. The lipids were then further dried under vacuum in a desiccator overnight. The following day the lipids were hydrated in 500 µl of reconstitution buffer (100 mM NaNO3, 10 mM HEPES, pH 7) (Buffer R), 250 µl of 75 mM 8-Aminonaphthalene-1,3,6-Trisulfonic Acid (ANTS, ThermoFisher Scientific) in buffer R, and doped with ~18 mg of CHAPS (Anatrace). The mixture was vortexed and then sonicated with heat until completely solubilized. Following the sonication, the solution was brought to RT then 3.5 µl of 6.7 mg/ml ELIC in Buffer A with 0.02% DDM was added (3 µg per mg of lipid). This combined solution was incubated at RT for 30 min, followed by the addition of 1 ml of 1:1 v/v SM-2 BioBeads in Buffer R and an additional 250 µl of 75 mM ANTS in Buffer R. This mixture was incubated at RT for 2.5 hr with gentle mixing. The liposome suspension was then extruded with an Avanti mini-extruder and 0.1 µm membrane (30×). The extruded liposomes were stored at 13 °C overnight with gentle rotation. The next day, the liposomes were diluted to 2.5 mL using assay buffer (140 mM NaNO3, 10 mM HEPES, pH 7) (Stopped-flow Buffer A), loaded into a PD-10 desalting column (Cytiva), eluted with 3 mL of Stopped-flow Buffer A and subsequently diluted 5-fold with Stopped-flow Buffer A.
(§3) Using propylamine as the agonist, the assay and analysis was carried out as previously described[13],[30].

ELIC S202A = biological target: T2, ELIC S202A (Dickeya chrysanthemi, UniProt P0C7B7, S201A)
T2 construct: host or cells: OverExpress C43 (DE3) E. coli
T2 sequence (P0C7B7 whole entry S201A): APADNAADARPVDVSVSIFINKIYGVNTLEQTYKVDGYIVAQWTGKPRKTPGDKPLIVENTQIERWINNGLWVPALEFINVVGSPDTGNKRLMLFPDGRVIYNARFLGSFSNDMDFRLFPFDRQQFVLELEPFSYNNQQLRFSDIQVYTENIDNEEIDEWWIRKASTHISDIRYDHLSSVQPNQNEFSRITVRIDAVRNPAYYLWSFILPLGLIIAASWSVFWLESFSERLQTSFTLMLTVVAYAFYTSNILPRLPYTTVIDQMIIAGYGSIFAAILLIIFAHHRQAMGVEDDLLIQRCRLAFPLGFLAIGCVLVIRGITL
Experimental: as §1, §2, §3

ELIC R318A = biological target: T3, ELIC R318A (Dickeya chrysanthemi, UniProt P0C7B7, R317A)
T3 construct: host or cells: OverExpress C43 (DE3) E. coli
T3 sequence (P0C7B7 whole entry R317A): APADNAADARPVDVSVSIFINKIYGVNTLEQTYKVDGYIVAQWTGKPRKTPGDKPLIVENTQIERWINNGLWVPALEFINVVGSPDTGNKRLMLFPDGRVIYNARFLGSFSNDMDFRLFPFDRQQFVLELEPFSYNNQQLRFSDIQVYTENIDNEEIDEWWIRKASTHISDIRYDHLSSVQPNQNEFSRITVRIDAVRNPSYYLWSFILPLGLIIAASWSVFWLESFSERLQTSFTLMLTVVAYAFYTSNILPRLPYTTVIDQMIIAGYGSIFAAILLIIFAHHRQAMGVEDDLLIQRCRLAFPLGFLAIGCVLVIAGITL
Experimental: as §1, §2, §3

ELIC T259A = biological target: T4, ELIC T259A (Dickeya chrysanthemi, UniProt P0C7B7, T258A/T259A)
T4 construct: host or cells: OverExpress C43 (DE3) E. coli
T4 sequence (P0C7B7 whole entry T258A/T259A): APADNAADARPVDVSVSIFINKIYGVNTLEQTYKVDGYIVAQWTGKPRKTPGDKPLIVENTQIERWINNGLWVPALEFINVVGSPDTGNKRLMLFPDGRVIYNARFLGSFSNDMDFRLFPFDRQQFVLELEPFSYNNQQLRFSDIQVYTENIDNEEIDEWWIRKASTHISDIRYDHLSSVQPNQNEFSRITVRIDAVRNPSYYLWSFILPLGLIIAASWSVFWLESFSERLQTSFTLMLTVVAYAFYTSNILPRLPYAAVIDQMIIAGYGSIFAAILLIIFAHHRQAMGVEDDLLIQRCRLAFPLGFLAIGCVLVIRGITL
Experimental: as §1, §2, §3

ELIC Q264L = biological target: T5, ELIC Q264L (Dickeya chrysanthemi, UniProt P0C7B7, Q263L)
T5 construct: host or cells: OverExpress C43 (DE3) E. coli
T5 sequence (P0C7B7 whole entry Q263L): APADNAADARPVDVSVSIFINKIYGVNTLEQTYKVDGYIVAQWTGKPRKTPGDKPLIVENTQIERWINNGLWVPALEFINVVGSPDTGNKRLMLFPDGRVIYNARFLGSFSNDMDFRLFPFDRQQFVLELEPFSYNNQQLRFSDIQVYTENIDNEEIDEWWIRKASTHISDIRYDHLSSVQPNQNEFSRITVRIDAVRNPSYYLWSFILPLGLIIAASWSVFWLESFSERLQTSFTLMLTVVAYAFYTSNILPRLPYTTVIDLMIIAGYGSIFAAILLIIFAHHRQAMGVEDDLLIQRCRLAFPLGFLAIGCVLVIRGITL
Experimental: as §1, §2, §3

T1 sequence (P0C7B7 whole entry W205F): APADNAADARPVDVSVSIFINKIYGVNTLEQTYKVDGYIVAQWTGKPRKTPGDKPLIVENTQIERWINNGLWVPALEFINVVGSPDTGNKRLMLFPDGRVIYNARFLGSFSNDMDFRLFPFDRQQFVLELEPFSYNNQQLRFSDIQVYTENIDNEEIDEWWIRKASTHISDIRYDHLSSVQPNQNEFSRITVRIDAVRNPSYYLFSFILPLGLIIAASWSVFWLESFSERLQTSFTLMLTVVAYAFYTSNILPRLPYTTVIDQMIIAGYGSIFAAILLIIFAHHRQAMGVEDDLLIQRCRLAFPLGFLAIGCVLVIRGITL

SMILES: CCCCCCCC/C=C\CCCCCCCC(=O)OC(COC(=O)CCCCCCCCCCCCCCC)COP(=O)(O)OCC(O)CO (stereo not drawn) [POPG, 1-palmitoyl-2-oleoyl-phosphatidylglycerol]
- POPG modulation (peak response and desensitization) (ELIC W206F): POPG only decreases desensitization
- POPG modulation (peak response and desensitization) (ELIC S202A): both effects of POPG (increased peak response and decreased desensitization) are abolished
- POPG modulation (peak response and desensitization) (ELIC R318A): POPG only decreases desensitization
- POPG modulation (peak response and desensitization) (ELIC T259A): POPG only decreases desensitization
- POPG modulation (peak response and desensitization) (ELIC Q264L): POPG modulation is preserved
- increase in the measurable peak response (ELIC Q264L): 2 ×
